pIC50: −log10 of the molar value.
What was measured:
[1] = Determination of brain to plasma ratio in rat; assay type: in vivo; conditions: brain and plasma, female Sprague Dawley rats, drug in brain over drug in plasma, read-out: Brain/Plasma Ratio of compound in Rat
Method: Brain to plasma ratios are estimated in female Sprague Dawley rats. The compound is dissolved in water or another appropriate vehicle. For determination of brain to plasma ratio the compound is administrated as a subcutaneous, or an intravenous bolus injection, or an intravenous infusion, or an oral administration. At a predetermined time point after the administration a blood sample is taken with cardiac puncture. The rat is terminated by cutting the heart open, and the brain is immediately retained. The blood samples are collected in heparinized tubes and centrifuged within 30 minutes, in order to separate the plasma from the blood cells. The plasma is transferred to 96-well plates and stored at −20° C. until analysis. The brains are divided in halt and each half is placed in a pre-tarred tube and stored at −20° C. until analysis. Prior to the analysis, the brain samples are thawed and 3 mL/g brain tissue of distilled water is added to the tubes. The brain samples are sonicated in an ice bath until the samples are homogenized. Both brain and plasma samples are precipitated with acetonitrile. After centrifugation, the supernatant is diluted with 0.2% formic acid. […] After reconstitution of the residuals the samples are ready for injection onto the HPLC column.

human mGluR5d = biological target: T1, human mGluR5d (Homo sapiens, UniProt P41594); assay: FLIPR assay, mGluR5 antagonism (intracellular calcium mobilization); assay type: cell-based; conditions: cells expressing human mGluR5d; read-out: FLIPR hmGluR5d
T1 construct: expressed in transfected cells; The culture medium holds Hygromycin B and Zeocin, which points to a stably transfected line
T1 sequence (P41594 21-942 isoform P41594-3 limits assumed): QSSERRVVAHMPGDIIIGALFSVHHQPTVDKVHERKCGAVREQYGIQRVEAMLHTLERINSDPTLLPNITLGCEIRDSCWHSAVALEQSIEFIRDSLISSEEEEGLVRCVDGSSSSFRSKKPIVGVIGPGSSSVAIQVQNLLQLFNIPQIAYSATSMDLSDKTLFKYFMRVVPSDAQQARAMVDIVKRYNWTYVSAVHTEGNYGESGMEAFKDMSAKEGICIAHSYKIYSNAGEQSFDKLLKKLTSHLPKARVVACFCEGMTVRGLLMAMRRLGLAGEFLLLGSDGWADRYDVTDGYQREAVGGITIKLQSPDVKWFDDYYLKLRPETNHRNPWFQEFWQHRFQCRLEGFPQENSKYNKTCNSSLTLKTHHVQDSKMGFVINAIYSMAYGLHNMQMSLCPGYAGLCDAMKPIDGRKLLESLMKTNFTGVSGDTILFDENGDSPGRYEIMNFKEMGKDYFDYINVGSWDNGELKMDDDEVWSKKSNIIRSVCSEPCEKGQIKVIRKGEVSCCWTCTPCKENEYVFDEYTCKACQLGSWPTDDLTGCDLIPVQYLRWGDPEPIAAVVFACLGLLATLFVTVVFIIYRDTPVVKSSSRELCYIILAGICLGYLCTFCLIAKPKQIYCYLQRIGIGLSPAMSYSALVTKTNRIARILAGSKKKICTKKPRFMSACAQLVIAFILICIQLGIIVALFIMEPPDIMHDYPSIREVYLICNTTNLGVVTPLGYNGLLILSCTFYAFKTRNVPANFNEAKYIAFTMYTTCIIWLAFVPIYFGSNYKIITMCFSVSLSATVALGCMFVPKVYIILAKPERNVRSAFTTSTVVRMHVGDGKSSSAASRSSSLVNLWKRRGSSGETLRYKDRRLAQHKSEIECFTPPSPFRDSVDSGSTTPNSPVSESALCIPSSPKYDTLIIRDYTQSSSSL
From the text: Functional Assessment of mGluR5 Antagonism in Cell Lines Expressing mGluR5D
The properties of the compounds of the invention can be analyzed using standard assays for pharmacological activity. Examples of glutamate receptor assays are well known in the art as described in for example Aramori et al, Neuron 8:757 (1992), Tanabe et al., Neuron 8:169 (1992), Miller et al., J. Neuroscience 15: 6103 (1995), Balazs, et al., J. Neurochemistry 69:151 (1997). The methodology described in these publications is incorporated herein by reference. […]
Cells expressing human mGluR5d as described in WO97/05252 cultured in a mixture of high glucose DMEM with Glutamax (31966-021) (500 mL), 10% dialyzed fetal bovine serum (Hyclone #SH30079.03) (56 mL), 200 μg/mL Hygromycin B (Invitrogen 45-0430, 50 mg/mL) (2.2 mL), 200 μg/mL Zeocin (Invitrogen #R250-01; 100 mg/mL) (1.1 mL) are seeded at a density of 100,000 cells per well on collagen coated clear bottom 96-well plates with black sides and cells were allowed to adhere over night before experiments. […] The fluorescence signal is sampled 50 times at 1-second intervals followed by 3 samples at 5-second intervals immediately after each of the two additions. Responses are measured as the difference between the peak heights of the response to agonist, less the background fluorescence within the sample period. […]

Row | Kp [1] | pIC50 (human mGluR5d) | Structure (SMILES)
1 | 0.03 | 7.24 | Cn1c(-c2ccncc2)nnc1N1CCC[C@@H]1c1cn(-c2cccc(Cl)c2)nn1 [Example 8.1, 4-(5-{(2R)-2-[1-(3-Chlorophenyl)-1H-1,2,3-triazol-4-yl]pyrrolidin-1-yl}-4-methyl-4H-1,2,4-triazol-3-yl)pyridine]
2 | < 0.015 | 6.94 | Cn1c(-c2cccnc2)nnc1N1CCC[C@@H]1c1cn(-c2cccc(Cl)c2)nn1 [Example 8.2, 3-(5-{(2R)-2-[1-(3-chlorophenyl)-1H-1,2,3-triazol-4-yl]pyrrolidin-1-yl}-4-methyl-4H-1,2,4-triazol-3-yl)pyridine]

Source: patent publication US20090111822A1, “1,2,3-TRIAZOLE PYRROLIDINE DERIVATIVES AS MODULATORS OF MGLUR5” (AstraZeneca AB, priority 2007, published 2009)
